From US7122523B2, “Methods for inhibiting tumor cell proliferation” (University of Southern California, priority 2001, dated 2006)

Key:
Experiment in all cases: Human tumor cell clonigenic assay (tritiated thymidine incorporation)
Assay type in all cases: cell-based
[1] = test system: Serous tumor of low malignant potential; conditions: Sample 6, Serous tumor of low malignant potential; AII(1–7) 0.1 ng/ml–10 μg/ml
Description: (§1) Primary and metastatic tumors obtained from the Department of Obstetrics and Gynecology Pathology Section and the Surgical Pathology Division of Los Angeles County/University of Southern California were minced into pieces less than 2 mm in diameter in the presence of RPMI-1640 (Gibco, Grand Island, NTY) containing 15% heat-inactivated fetal calf serum. Each gram of tumor tissue was treated with 10–20 mL of enzyme medium, consisting of Hanks' balanced salt solution with 0.03% DNAse (500 Kunitz units/mL; Sigma Chemical Co., St. Louis, Mo.) and 0.14% collagenase type I (Sigma). Tumor fragments were stirred for 90 minutes at 37° C. in the presence of 5% CO2. After enzymatic digestion, the free cells were decanted through 40-gauge mesh strainers and centrifuged at 200×g for 10 minutes. The supernatant was removed and viable cells were resuspended in RPMI 1640. The cell number was determined using a hematocytometer and 0.04% trypan blue dye. The cells were then centrifuged and the pellet resuspended in RPMI 1640 at 5×10^5 cells/mL.
(§2) Human cancer cells were obtained from operative specimens provided by the Division of Gynecologic Oncology, Department of Obstetrics and Gynecology, or the Department of Surgical Pathology of Los Angeles County/University of Southern California School of Medicine. Tumor cells were maintained in vitro in RPMI 1640 medium supplemented with 15% heat-inactivated fetal calf serum, 100 μg/mL streptomycin, fungizone 25 μg/mL, and 100 μ/mL penicillin.
(§3) Cells were cultured on an underlayer of 0.5% agarose (Bethesda Research Labs, Bethesda, Md.) prepared from a 3% stock of agarose with added penicillin (100 units/mL), streptomycin (100 μg/mL), and fungizone (1.25 μg/mL) (GIBCO) as per a modification of an established procedure. The cloning efficiency of this assay varied depending upon the source of the tissue. One milliliter of this 0.5% agarose mixture was added to each 16×16-mm well of a 24-well plate and the plates were refrigerated for 10 minutes at 4° C. Cells were suspended in 0.6% agarose in RPMI-1640 supplemented with antibiotics and 15% fetal calf serum. One aliquot (0.5 mL) of cell suspension was added to each underlaver at a final concentration of 5×10^4 cells/well, and the plates were refrigerated 10 minutes at 4° C.
(§4) After a 72-hour incubation at 37° C., 5 μCi of tritiated thymidine (specific activity 18.2 Ci/mmol; New England Nuclear, Boston, Mass.) was layered over each well, and the plates were returned to the incubator for an additional 24 hours, incorporation of thymidine was terminated by transferring the agarose layers to 10-mL glass centrifuge tubes (Kimble, Division of Owens, Ill.) and boiling the tubes for 15 minutes in a water bath. The volume was brought to 8 mL, the tubes were centrifuged, and the pellets were washed with phosphate-buffered saline and then dissolved in 3 mL of 0.85 N KOH for 1 hour at 80° C. The tubes were cooled on ice and the hydrolysates were precipitated by adding 30 μL of 1% human serum albumin (Sigma) and 2.4 mL of ice-cold trichloroacetic acid. After overnight storage at 4° C., precipitates were collected by centrifugation. Pellets were washed with 5% trichloroacetic acid, dissolved in 0.3 mL of 0.075 N KOH, and transferred to scintillation vials to which 5 mL of Liquiscint (National Diagnostics, Somerville, N.J.) were added. Radioactivity per vial was measured in a Nuclear-Chicago liquid scintillation counter.

[2] = test system: Cervical squamous cell carcinoma
Description: as §1, §2, §3, §4

[3] = test system: Metastatic Ovarian Papillary Carcinoma to Omentum; conditions: Sample 13, Metastatic Ovarian Papillary Carcinoma to Omentum; AII(1–7) 0.1 ng/ml–10 μg/ml
Description: as §1, §2, §3, §4

[4] = test system: Metastatic uterine carcinosarcoma to the ovary; conditions: Sample 5, Metastatic uterine carcinosarcoma to the ovary; AII(1–7) 0.1 ng/ml–10 μg/ml
Description: as §1, §2, §3, §4

[5] = test system: Leiomyosarcoma; conditions: Sample 1, Leiomyosarcoma; AII(1–7) 0.1 ng/ml–10 μg/ml
Description: as §1, §2, §3, §4

[6] = test system: Ovarian Serous papillary carcinoma; conditions: Sample 31, Ovarian Serous papillary carcinoma
Description: as §1, §2, §3, §4

[7] = test system: Squamous Cell Carcinoma of the Cervix, gr 3; conditions: Sample 12, Squamous Cell Carcinoma of the Cervix, AII(1–7) 0.1 ng/ml–10 μg/ml
Description: as §1, §2, §3, §4

[8] = test system: Metastatic colon adenocarcinoma; conditions: Sample 26, Metastatic colon adenocarcinoma; AII(1–7) 0.1 ng/ml–10 μg/ml
Description: as §1, §2, §3, §4

[9] = test system: Ovarian carcinoma-clear cell; conditions: Sample 3, Ovarian carcinoma-clear cell; AII(1–7) 0.1 ng/ml–10 μg/ml
Description: as §1, §2, §3, §4

[10] = test system: Ovarian papillary serous carcinoma; conditions: Sample 2, Ovarian papillary serous carcinoma
Description: as §1, §2, §3, §4

[11] = test system: Cystic poorly differentiated endometroid carcinoma of ovary; conditions: Sample 30, Cystic poorly differentiated endometroid carcinoma of ovary; AII(1–7) 0.1 ng/ml–10 μg/ml
Description: as §1, §2, §3, §4

CC[C@H](C)[C@H](NC(=O)[C@H](Cc1ccc(O)cc1)NC(=O)[C@@H](NC(=O)[C@H](CCCNC(=N)N)NC(=O)[C@@H](N)CC(=O)O)C(C)C)C(=O)N[C@@H](Cc1c[nH]cn1)C(=O)N1CCC[C@H]1C(=O)O [AII(1–7), Asp-Arg-Val-Tyr-Ile-His-Pro]
Effect of AII(1–7) on proliferation [1]: No Effect | IC50 (ng/ml) of AII(1–7) ([2]; Sample 37, Cervical squamous cell adenocarcinoma, proliferation): 2.73 ng/mL | Effect of AII(1–7) on proliferation ([2]; Sample 37, Cervical squamous cell carcinoma, AII(1–7) 0.1 ng/ml–10 μg/ml): Decreased | Effect of AII(1–7) on proliferation [3]: No Effect | Effect of AII(1–7) on proliferation [4]: Equivocal | Effect of AII(1–7) on proliferation [5]: No Effect | Effect of AII(1–7) on proliferation ([6]; AII(1–7) 0.1 ng/ml–10 μg/ml): Decreased | IC50 (ng/ml) of AII(1–7) ([6]; proliferation): 2.34 ng/mL | Effect of AII(1–7) on proliferation [7]: No Effect | Effect of AII(1–7) on proliferation [8]: Variable | Effect of AII(1–7) on proliferation [9]: No Effect | Effect of AII(1–7) on proliferation ([10]; AII(1–7) 0.1 ng/ml–10 μg/ml): Decreased | IC50 (ng/ml) of AII(1–7) ([10]; proliferation): 3.0 ng/mL | Effect of AII(1–7) on proliferation [11]: No Effect
